One block for each molecule: values may come before it.
Columns and labels:
[1] = Cell permeability, flux assay using Caco-2 cells; details: human, Caco-2
[2] = target: T1, human kinesin spindle protein KSP/Eg5 (Homo sapiens, UniProt P52732); test: Inhibition of the kinesin spindle protein KSP/Eg5 (ATPase, malachite green); type: biochemical; details: 10 nM KSP motor domain, 500 μM ATP, 2 h RT
T1 construct: The motor domain of the human kinesin spindle protein KSP/Eg5; purchased tebu-bio/Cytoskeleton Inc 027EG01-XL
T1 sequence (P52732 18-359 limits assumed): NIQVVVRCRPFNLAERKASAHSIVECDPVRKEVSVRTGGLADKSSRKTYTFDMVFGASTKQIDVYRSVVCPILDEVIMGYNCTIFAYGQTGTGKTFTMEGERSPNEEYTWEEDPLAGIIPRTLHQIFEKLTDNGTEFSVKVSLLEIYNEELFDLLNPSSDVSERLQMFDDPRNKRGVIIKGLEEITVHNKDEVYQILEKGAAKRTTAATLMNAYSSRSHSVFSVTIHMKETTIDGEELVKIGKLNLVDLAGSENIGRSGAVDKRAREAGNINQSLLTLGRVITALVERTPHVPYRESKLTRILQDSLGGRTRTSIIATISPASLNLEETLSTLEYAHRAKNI
Method in brief: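 KSP/Eg5 motor domain (10 nM) preincubated 5 min at RT with 50 μg/ml taxol-stabilized bovine or porcine microtubules in 15 mM PIPES pH 6.8, 5 mM MgCl2, 10 mM DTT. IC50 = mean of three experiments.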

[3] = tested on: NCI-H292; test: Cytotoxic effects, MTT assay; type: cell-based; details: Homo sapiens, 72 h incubation
Experimental: The cells are cultivated by a standard method, as indicated in the […] (ATCC) for the respective cell lines.
At the end of the selected incubation time, the MTT reagent is incubated with the cells for 4 h, followed by lysis of the cells overnight by addition of the detergent. […] The proliferation of cells which were not treated with test substance but were otherwise identically treated was defined as the 100% figure.

Compound: CC(C)(C)[C@H](c1nc(-c2cc(F)ccc2F)cn1Cc1ccccc1)N(CCCN)C(=O)CSCCC(NC(=O)CCOCCOCCOCCOCCNC(=O)CCN1C(=O)CC(SC[C@H](N)C(=O)O)C1=O)C(=O)O.O=C(O)C(F)(F)F.O=C(O)C(F)(F)F (mixture of isomers) [Example 140, N-[19-(3(R/S)-[{(2R)-2-Amino-2-carboxyethyl]sulphanyl}-2,5-dioxopyrrolidin-1-yl)-17-oxo-4,7,10,13-tetraoxa-16-azanonadecan-1-oyl]-R/S-{2-[(3-aminopropyl){(1R)-1-[1-benzyl-4-(2,5-difluorophenyl)-1H-imidazol-2-yl]-2,2-dimethylpropyl}amino]-2-oxoethyl}homocysteine/trifluoroacetic acid (1:2)]
Papp B→A at 2 h [1]: 0.17 ×10⁻⁶ cm/s
efflux ratio at 2 h [1]: 1
IC50 [2]: 2.51 nM
IC50 [3]: ≥ 500 nM

IC50 [2]: 14.1 nM
Compound: CC(C)(C)[C@H](c1cc(-c2cc(F)ccc2F)cn1Cc1ccccc1)N(CCCN)C(=O)c1ccc(F)cc1 [Example 187, N-(3-aminopropyl)-N-{(1R)-1-[1-benzyl-4-(2,5-difluorophenyl)-1H-pyrrol-2-yl]-2,2-dimethylpropyl}-4-fluorobenzamide]
IC50 [3]: 1.98 nM

IC50 [2]: 10.1 nM
Compound: CC(=O)N(CCCN)[C@@H](c1cc(-c2cc(F)ccc2F)cn1Cc1ccccc1)C(C)(C)C [Example 188, N-(3-aminopropyl)-N-{(1R)1-[1-benzyl-4-(2,5-difluorophenyl)-1H-pyrrol-2-yl]-2,2-dimethylpropyl}acetamide]
IC50 [3]: 0.928 nM

IC50 [2]: 11.2 nM
Compound: CC(C)(C)[C@H](c1cc(-c2cc(F)ccc2F)cn1Cc1ccccc1)N(CCCN)C(=O)c1ccc(C(F)(F)F)cc1 [Example 189, N-(3-aminopropyl)-N-{(1R)-1-[1-benzyl-4-(2,5-difluorophenyl)-1H-pyrrol-2-yl]-2,2-dimethylpropyl}-4-(trifluoromethyl)benzamide]
IC50 [3]: 8.76 nM

IC50 [2]: 9.61 nM
Compound: CC(C)(C)[C@H](c1cc(-c2cc(F)ccc2F)cn1Cc1ccccc1)N(CCCN)C(=O)c1ccc(F)cc1F [Example 190]
IC50 [3]: 5.42 nM

Compound: CC(C)(C)[C@H](c1cc(-c2cc(F)ccc2F)cn1Cc1ccccc1)N(CC[C@H](N)C(=O)NCCC(=O)O)C(=O)CO [Example 200, N-{(2S)-2-Amino-4-[{(1R)-1-[1-benzyl-4-(2,5-difluorophenyl)-1H-pyrrol-2-yl]-2,2-dimethylpropyl}(glycoloyl)amino]butanoyl}-beta-alanine/trifluoroacetic acid (1:1)]
IC50 [2]: 0.108 nM
IC50 [3]: 140 nM

Compound: C[C@H](NC(=O)[C@@H](N)CCN(C(=O)CO)[C@@H](c1cc(-c2cc(F)ccc2F)cn1Cc1ccccc1)C(C)(C)C)C(=O)O [Example 202, N-{(2S)-2-Amino-4-{[(1R)-1-[1-benzyl-4-(2,5-difluorophenyl)-1H-pyrrol-2-yl]-2,2-dimethylpropyl}(glycoloyl)amino]butanoyl}-L-alanine/trifluoroacetic acid (1:1)]
IC50 [2]: 0.256 nM
IC50 [3]: 422 nM

Compound: Cc1ccc(C(=O)N(CCCN)[C@@H](c2cc(-c3cc(F)ccc3F)cn2Cc2ccccc2)C(C)(C)C)cc1 [Example 219, Trifluoroacetic acid/N-(3-aminopropyl)-N-{(1R)-1-[1-benzyl-4-(2,5-difluorophenyl)-1H-pyrrol-2-yl]-2,2-dimethylpropyl}-4-methylbenzamide (1:1)]
IC50 [2]: 1.13 nM
IC50 [3]: 3.48 nM

Compound: CSc1ccc(C(=O)N(CCCN)[C@@H](c2cc(-c3cc(F)ccc3F)cn2Cc2ccccc2)C(C)(C)C)cc1 [Example 220, Trifluoroacetic acid/N-(3-aminopropyl)-N-{(1R)-1-[1-benzyl-4-(2,5-difluorophenyl)-1H-pyrrol-2-yl]-2,2-dimethylpropyl}-4-(methylsulphanyl)benzamide (1:1)]
IC50 [2]: 1.45 nM
IC50 [3]: 0.197 nM

Compound: C[C@H](O)C(=O)N(CCCN)[C@@H](c1cc(-c2cc(F)ccc2F)cn1Cc1ccccc1)C(C)(C)C [Example 221, Trifluoroacetic acid/(2S)—N-(3-aminopropyl)-N-{(1R)-1-[1-benzyl-4-(2,5-difluorophenyl)-1H-pyrrol-2-yl]-2,2-dimethylpropyl}-2-hydroxypropanamide (1:1)]
IC50 [2]: 0.112 nM
IC50 [3]: 0.1 nM

Compound: CSCC(=O)N(CCCN)[C@@H](c1cc(-c2cc(F)ccc2F)cn1Cc1ccccc1)C(C)(C)C [Example 222, Trifluoroacetic acid/N-(3-aminopropyl)-N-{(1R)-1-[1-benzyl-4-(2,5-difluorophenyl)-1H-pyrrol-2-yl]-2,2-dimethylpropyl}-2-(methylsulphanyl)acetamide (1:1)]
IC50 [2]: 1.58 nM
IC50 [3]: 3.3 nM

Compound: C[C@H](O)C(=O)N(CCCN)[C@@H](c1nn(-c2cc(F)ccc2F)cc1Cc1ccccc1)C(C)(C)C [Example 223, Trifluoroacetic acid/(2S)—N-(3-aminopropyl)-N-{(1R)-1-[4-benzyl-1-(2,5-difluorophenyl)-1H-pyrazol-3-yl]-2,2-dimethylpropyl}-2-hydroxypropanamide (1:1)]
IC50 [2]: 0.289 nM
IC50 [3]: 0.0077 nM

Compound: COC(=O)CCC(=O)N(CCCN)[C@@H](c1cc(-c2cc(F)ccc2F)cn1Cc1ccccc1)C(C)(C)C [Example 224, Trifluoroacetic acid/methyl 4-[(3-aminopropyl){(1R)-1-[1-benzyl-4-(2,5-difluorophenyl)-1H-pyrrol-2-yl]-2,2-dimethylpropyl}amino]-4-oxobutanoate (1:1)]
IC50 [2]: 0.196 nM
IC50 [3]: 0.00337 nM

Compound: CC(C)(C)[C@H](c1cc(-c2cc(F)ccc2F)cn1Cc1ccccc1)N(CCCN)C(=O)CCC(=O)O [Example 225, 4-[(3-Aminopropyl) {(1R)-1-[1-benzyl-4-(2,5-difluorophenyl)-1H-pyrrol-2-yl]-2,2-dimethylpropyl}amino]-4-oxobutanoic acid/trifluoroacetic acid (1:1)]
IC50 [2]: 0.425 nM
IC50 [3]: 1.51 nM

Compound: CC(C)(C)[C@H](c1nn(-c2cc(F)ccc2F)cc1Cc1ccccc1)N(CCCN)C(=O)c1ccc(N)cc1 [Example 227, Trifluoroacetic acid/4-amino-N-(3-aminopropyl)-N-{(1R)-1-[4-benzyl-1-(2,5-difluorophenyl)-1H-pyrazol-3-yl]-2,2-dimethylpropyl}benzamide (2:1)]
IC50 [2]: 1.78 nM
IC50 [3]: 1.82 nM

Compound: CC(=O)N[C@@H](CSCC(=O)N(CCCN)[C@@H](c1cc(-c2cc(F)ccc2F)cn1Cc1ccccc1)C(C)(C)C)C(=O)O [Example 228, N-Acetyl-S-{2-[(3-aminopropyl){(1R)-1-[1-benzyl-4-(2,5-difluorophenyl)-1H-pyrrol-2-yl]-2,2-dimethylpropyl}amino]-2-oxoethyl}-L-cysteine/trifluoroacetic acid (1:1)]
IC50 [2]: 3.07 nM
IC50 [3]: 5.36 nM

Compound: CC(=O)N[C@@H](CSCC(=O)N(CCCNC(=O)[C@H](C)N)[C@@H](c1cc(-c2cc(F)ccc2F)cn1Cc1ccccc1)C(C)(C)C)C(=O)O [Example 229, N-acetyl-S-[2-([3-(L-alanylamino)propyl]{(1R)-1-[1-benzyl-4-(2,5-difluorophenyl)-1H-pyrrol-2-yl]-2,2-dimethylpropyl}amino)-2-oxoethyl]-L-cysteine/trifluoroacetic acid (1:1)]
IC50 [2]: 4.44 nM
IC50 [3]: ≥ 500 nM

Compound: CC(C)(C)[C@H](c1cc(-c2cc(F)ccc2F)cn1Cc1ccccc1)N(CCCN)C(=O)[C@@H]1CCCO1 [Example 230, Trifluoroacetic acid/(2S)—N-(3-aminopropyl)-N-{(1R)-1-[1-benzyl-4-(2,5-difluorophenyl)-1H-pyrrol-2-yl]-2,2-dimethylpropyl}tetrahydrofuran-2-carboxamide (1:1)]
IC50 [2]: 3.41 nM
IC50 [3]: 0.0121 nM

Compound: CC(C)(C)[C@H](c1cc(-c2cc(F)ccc2F)cn1Cc1ccccc1)N(CCCN)C(=O)CSCCC(=O)O [Example 231, 3-({2-[(3-Aminopropyl){(1R)-1-[1-benzyl-4-(2,5-difluorophenyl)-1H-pyrrol-2-yl]-2,2-dimethylpropyl}amino]-2-oxoethyl}sulphanyl)propanoic acid/trifluoroacetic acid (1:1)]
IC50 [2]: 1.67 nM
IC50 [3]: 0.918 nM

Compound: CC(C)(C)[C@H](c1cc(-c2cc(F)ccc2F)cn1Cc1ccccc1)N(CCCN)C(=O)c1ccc(N)cc1 [Example 233, Trifluoroactic acid/4-amino-N-(3-aminopropyl)-N-{(1R)-1-[1-benzyl-4-(2,5-difluorophenyl)-1H-pyrrol-2-yl]-2,2-dimethylpropyl}benzamide (2:1)]
IC50 [2]: 3.88 nM
IC50 [3]: 0.963 nM

Compound: CC(C)(C)[C@H](c1cc(-c2cc(F)ccc2F)cn1Cc1ccccc1)N(CC[C@H](N)C(=O)NCCCCCCN1C(=O)CC(SC[C@H](N)C(=O)O)C1=O)C(=O)CO (stereo partly drawn) [Example 249, S-{1-[6-({(2S)-2-Amino-4-[{(1R)-1-[1-benzyl-4-(2,5-difluorophenyl)-1H-pyrrol-2-yl]-2,2-dimethylpropyl}(glycoloyl)amino]butanoyl}amino)hexyl]-2,5-dioxopyrrolidin-3-yl}-L-cysteine/trifluoroacetic acid (1:1)]
IC50 [2]: 0.915 nM
IC50 [3]: 26.6 nM
